For 33 compounds, IC50 results are on record in US11685732B2, “MYST family histone acetyltransferase inhibitors” (Epizyme, Inc., priority 2017, dated 2023).

In one assay the target is KAT-5 (Homo sapiens (Human), UniProt Q92993). Briefly: KAT-5 biochemical inhibition assay (SAMDI mass spectrometry). The method, boiled down:
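KAT-5 at 9 nM final was preincubated with serially diluted compound (2% DMSO) in 50 mM Tris pH 8.0 with 1 mM DTT. Reaction ran with 1 μM peptide substrate and 0.5 μM acetyl-CoA for 90 min at 25° C, was quenched with 0.5% formic acid, and was read by SAMDI-TOF mass spectrometry.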

Another assay has as its target KAT-6A (Homo sapiens (Human), UniProt Q92794). Description: KAT-6A biochemical inhibition assay (SAMDI mass spectrometry). The gist of the method: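 Enzyme (12.5 nM final) pre-incubated with serially diluted compounds (2% DMSO final) in 50 mM Tris pH 8.0 with Tween20, gelatin and 1 mM DTT. Reaction started with 1 μM peptide substrate and 1 μM acetyl-CoA, run 90 min at 25 °C, quenched with 0.5% formic acid, read by SAMDI-TOF mass spectrometry; IC50 derived.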

Another assay deals with KAT-7 (Homo sapiens (Human), UniProt O95251). Description: KAT-7 biochemical inhibition assay (SAMDI mass spectrometry). The method, boiled down:
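KAT-7 (6 nM) was pre-incubated with serially diluted compound (2% DMSO) in Tris pH 8.0 with DTT. Reaction with 1 μM peptide and 2 μM acetyl-CoA ran 120 min at 25 °C and was stopped with 0.5% formic acid. Acetylation was read by SAMDI-TOF mass spectrometry to give IC50.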

The next assay deals with KAT-8 (Homo sapiens (Human), UniProt Q9H7Z6). Briefly: KAT-8 biochemical inhibition assay (SAMDI mass spectrometry). The gist of the method:
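Compounds in 2% DMSO pre-incubated with 12.5 nM enzyme in 50 mM Tris pH 8.0 with Tween20, gelatin and 1 mM DTT. Then 1 μM peptide and 5 μM acetyl-CoA were added, 90 min at 25 °C; formic acid stop and SAMDI-TOF mass spectrometry for IC50.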

Sequence of KAT-6A (Q92794 other isoform, or with tags, fused parts or gaps): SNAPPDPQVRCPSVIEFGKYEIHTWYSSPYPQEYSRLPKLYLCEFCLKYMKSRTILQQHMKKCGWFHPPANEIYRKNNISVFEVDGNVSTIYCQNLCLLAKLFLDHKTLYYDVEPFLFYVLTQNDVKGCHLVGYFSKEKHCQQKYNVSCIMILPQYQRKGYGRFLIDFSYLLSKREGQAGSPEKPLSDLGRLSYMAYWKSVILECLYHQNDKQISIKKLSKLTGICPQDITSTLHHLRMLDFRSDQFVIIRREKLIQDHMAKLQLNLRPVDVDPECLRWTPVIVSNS
Sequence of KAT-8 (Q9H7Z6 other isoform, or with tags, fused parts or gaps): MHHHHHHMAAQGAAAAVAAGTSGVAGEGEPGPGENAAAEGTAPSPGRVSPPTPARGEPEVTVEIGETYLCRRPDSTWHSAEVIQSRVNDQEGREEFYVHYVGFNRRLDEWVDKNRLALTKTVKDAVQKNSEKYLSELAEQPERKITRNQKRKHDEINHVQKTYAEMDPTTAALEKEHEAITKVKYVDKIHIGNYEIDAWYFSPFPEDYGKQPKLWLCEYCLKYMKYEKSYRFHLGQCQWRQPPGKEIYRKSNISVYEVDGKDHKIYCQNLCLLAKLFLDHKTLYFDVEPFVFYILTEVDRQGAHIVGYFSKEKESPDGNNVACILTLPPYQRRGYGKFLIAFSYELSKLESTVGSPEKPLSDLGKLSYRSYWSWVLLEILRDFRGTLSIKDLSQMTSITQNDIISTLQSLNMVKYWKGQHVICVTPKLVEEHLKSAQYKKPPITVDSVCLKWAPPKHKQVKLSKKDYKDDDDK
Sequence of KAT-7 (O95251 other isoform, or with tags, fused parts or gaps): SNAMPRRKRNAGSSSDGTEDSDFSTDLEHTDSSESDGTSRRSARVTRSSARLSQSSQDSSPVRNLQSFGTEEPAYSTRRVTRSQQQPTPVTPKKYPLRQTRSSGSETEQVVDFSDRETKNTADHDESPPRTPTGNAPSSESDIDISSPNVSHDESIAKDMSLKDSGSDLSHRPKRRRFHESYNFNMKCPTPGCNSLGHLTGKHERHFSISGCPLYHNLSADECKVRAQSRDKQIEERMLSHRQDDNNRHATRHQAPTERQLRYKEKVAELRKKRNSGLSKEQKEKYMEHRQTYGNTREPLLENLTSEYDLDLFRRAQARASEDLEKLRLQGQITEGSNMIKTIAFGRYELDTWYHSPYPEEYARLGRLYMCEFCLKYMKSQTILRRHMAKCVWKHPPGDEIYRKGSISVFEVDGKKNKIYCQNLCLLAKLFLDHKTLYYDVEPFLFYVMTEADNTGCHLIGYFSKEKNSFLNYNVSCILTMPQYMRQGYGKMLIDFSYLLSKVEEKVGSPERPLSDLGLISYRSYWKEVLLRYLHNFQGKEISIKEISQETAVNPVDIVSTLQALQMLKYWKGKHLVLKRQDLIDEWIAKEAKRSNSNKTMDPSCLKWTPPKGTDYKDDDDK
Sequence of KAT-5 (Q92993 other isoform, or with tags, fused parts or gaps): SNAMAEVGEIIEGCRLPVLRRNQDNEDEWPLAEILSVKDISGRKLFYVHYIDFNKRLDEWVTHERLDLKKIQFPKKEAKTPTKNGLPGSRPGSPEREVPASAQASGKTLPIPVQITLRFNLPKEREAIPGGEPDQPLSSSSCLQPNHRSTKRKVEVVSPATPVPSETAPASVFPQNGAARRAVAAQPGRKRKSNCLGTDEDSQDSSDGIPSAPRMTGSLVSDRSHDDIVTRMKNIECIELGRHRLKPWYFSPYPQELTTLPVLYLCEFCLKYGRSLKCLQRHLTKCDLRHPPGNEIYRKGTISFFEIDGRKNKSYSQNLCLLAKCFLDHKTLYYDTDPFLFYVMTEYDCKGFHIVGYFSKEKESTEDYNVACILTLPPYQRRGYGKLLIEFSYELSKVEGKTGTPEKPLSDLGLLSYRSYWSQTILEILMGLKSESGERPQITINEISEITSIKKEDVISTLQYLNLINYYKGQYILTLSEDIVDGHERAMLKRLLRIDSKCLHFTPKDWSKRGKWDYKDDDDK

Broadly, the IC50 is the concentration needed to halve the response being measured. A low value points to inhibition by little substance. `Cn1cnc(-c2cc(Cl)c(F)c(C(=O)NNS(=O)(=O)C[C@H]3CC[C@@H](N(C)C(=O)OC(C)(C)C)CC3)c2)c1` [Compound I-331]: the IC50 on KAT-5 is below 10 µM; against KAT-6A, 10 to 50 µM; on KAT-7, below 10 µM; at KAT-8 it was 10 to 50 µM.
For `Cn1cnc(-c2cc(Cl)c(F)c(C(=O)NNS(=O)(=O)C[C@H]3CC[C@H](N(C)C(=O)OC(C)(C)C)CC3)c2)c1` [Compound I-332], the 50% inhibitory concentration (IC50) against KAT-5 was below 10 µM; against KAT-6A, below 10 µM; on KAT-7 it was below 10 µM; on KAT-8, 10 to 50 µM.
For the compound `Cn1cnc(-c2cc(Cl)c(F)c(C(=O)NNS(=O)(=O)C[C@@H]3CCC[C@@H](NC(=O)OC(C)(C)C)C3)c2)c1` [Compound I-333], the IC50 against KAT-5 was below 10 µM; on KAT-6A it was below 10 µM; against KAT-7, below 10 µM; on KAT-8, 10 to 50 µM.
`Cn1cnc(-c2cc(Cl)c(F)c(C(=O)NNS(=O)(=O)CC34CCC(CC3)CC4)c2)c1` [Compound I-334]: the IC50 on KAT-5 was below 10 µM; against KAT-6A it was below 10 µM; against KAT-7, below 10 µM; at KAT-8, 10 to 50 µM.
Consider `CC1CCCCC1CS(=O)(=O)NNC(=O)c1cc(-c2cn(C)cn2)cc(Cl)c1F` (stereo not drawn) [Compound I-335], for which the IC50 was below 10 µM on KAT-5, below 10 µM on KAT-6A, below 10 µM against KAT-7 and 10 to 50 µM against KAT-8.
In the case of `CN(C)C(=O)NC1CCC(CS(=O)(=O)NNC(=O)c2cc(-c3cn(C)cn3)cc(Cl)c2F)C1` (stereo not drawn) [Compound I-336], the IC50 was below 10 µM at KAT-5, below 10 µM against KAT-6A, below 10 µM against KAT-7 and 10 to 50 µM against KAT-8.
Take `CN[C@H]1CC[C@H](CS(=O)(=O)NNC(=O)c2cc(-c3cn(C)cn3)cc(Cl)c2F)CC1` [Compound I-337]: the half-maximal inhibitory concentration (IC50) against KAT-5 was 10 to 50 µM; against KAT-6A, 10 to 50 µM; against KAT-7, below 10 µM; against KAT-8, 10 to 50 µM.
Turning to `CCNC(=O)N(C)[C@H]1CC[C@H](CS(=O)(=O)NNC(=O)c2cc(-c3cn(C)cn3)cc(Cl)c2F)CC1` [Compound I-338], the 50% inhibitory concentration (IC50) against KAT-5 was below 10 µM; against KAT-6A, below 10 µM; against KAT-7, below 10 µM; against KAT-8 it was 10 to 50 µM.
With `Cn1cnc(-c2cc(Cl)c(F)c(C(=O)NNS(=O)(=O)CC3CCC(N)C3)c2)c1` (stereo not drawn) [Compound I-339], the IC50 on KAT-5 is 10 to 50 µM; on KAT-6A it was 10 to 50 µM; on KAT-7, below 10 µM; on KAT-8 it was 10 to 50 µM.
Take `Cn1cnc(-c2cc(Cl)c(F)c(C(=O)NNS(=O)(=O)CC3CCC(NC(N)=O)C3)c2)c1` (stereo not drawn) [Compound I-340]: the IC50 at KAT-5 was below 10 µM; against KAT-6A, below 10 µM; on KAT-7 it was below 10 µM; on KAT-8, 10 to 50 µM.
For the compound `Cn1cnc(-c2cc(Cl)c(F)c(C(=O)NNS(=O)(=O)CC3CCC(NC(=O)N4CCC4)C3)c2)c1` (stereo not drawn) [Compound I-341], the IC50 is below 10 µM at KAT-5, below 10 µM against KAT-6A, below 10 µM against KAT-7 and 10 to 50 µM against KAT-8.
Take `Cn1cnc(-c2cc(Cl)c(F)c(C(=O)NNS(=O)(=O)CC3CCCC(F)(F)C3)c2)c1` (stereo not drawn) [Compound I-342]: the IC50 on KAT-5 was below 10 µM; at KAT-6A it was below 10 µM; on KAT-7, below 10 µM; against KAT-8, 10 to 50 µM.
`CN(C(=O)OC(C)(C)C)c1cccc(S(=O)(=O)NNC(=O)c2cc(-c3cn(C)cn3)cc(Cl)c2F)c1` [Compound I-343]: the IC50 against KAT-5 was below 10 µM; at KAT-6A, below 10 µM; at KAT-7, below 10 µM; against KAT-8, 10 to 50 µM.
Turning to `Cn1cnc(-c2cc(Cl)c(F)c(C(=O)NNS(=O)(=O)CC3CCC(NC(=O)N4CCCCC4)C3)c2)c1` (stereo not drawn) [Compound I-345], the 50% inhibitory concentration (IC50) against KAT-5 is below 10 µM; against KAT-6A, below 10 µM; at KAT-7, below 10 µM; against KAT-8 it was 10 to 50 µM.
As for `Cn1cnc(-c2cc(Cl)c(F)c(C(=O)NNS(=O)(=O)CC3CCC(NC(=O)N4CCCC4)C3)c2)c1` (stereo not drawn) [Compound I-346], the IC50 is below 10 µM on KAT-5, below 10 µM against KAT-6A, below 10 µM at KAT-7 and 10 to 50 µM at KAT-8.
Regarding `CCOC1CCC(CS(=O)(=O)NNC(=O)c2cc(-c3cn(C)cn3)cc(Cl)c2F)CC1` (stereo not drawn) [Compound I-347], the IC50 against KAT-5 was below 10 µM; against KAT-6A it was below 10 µM; at KAT-7 it was below 10 µM; on KAT-8, 10 to 50 µM.
Regarding `CCNC(=O)N[C@H]1CCC[C@H](CS(=O)(=O)NNC(=O)c2cc(-c3cn(C)cn3)cc(Cl)c2F)C1` [Compound I-348], the 50% inhibitory concentration (IC50) on KAT-5 is below 10 µM; on KAT-6A, below 10 µM; on KAT-7, below 10 µM; against KAT-8, 10 to 50 µM.
With `Cn1cnc(-c2cc(Cl)c(F)c(C(=O)NNS(=O)(=O)C[C@H]3CCC[C@H](N)C3)c2)c1` [Compound I-349], the 50% inhibitory concentration (IC50) is 10 to 50 µM on KAT-5, 10 to 50 µM at KAT-6A, below 10 µM against KAT-7 and 10 to 50 µM on KAT-8.
Take `Cn1cnc(-c2cc(Cl)c(F)c(C(=O)NNS(=O)(=O)C[C@H]3CCC[C@H](NC(=O)OC(C)(C)C)C3)c2)c1` [Compound I-350]: the IC50 on KAT-5 is below 10 µM; on KAT-6A, below 10 µM; against KAT-7, below 10 µM; against KAT-8 it was 10 to 50 µM.
Take `Cn1cnc(-c2cc(Cl)c(F)c(C(=O)NNS(=O)(=O)C[C@@H]3CCC[C@@H](N)C3)c2)c1` [Compound I-351]: the IC50 against KAT-5, at KAT-6A, against KAT-7 and against KAT-8 was 10 to 50 µM each time.
Turning to `CCNC(=O)N1CCC(C)C(CS(=O)(=O)NNC(=O)c2cc(-c3cn(C)cn3)cc(Cl)c2F)C1` (stereo not drawn) [Compound I-352], the IC50 against KAT-5 was below 10 µM; against KAT-6A, 10 to 50 µM; against KAT-7, below 10 µM; against KAT-8 it was 10 to 50 µM.
In the case of `CO[C@H]1CC[C@@H](CS(=O)(=O)NNC(=O)c2cc(-c3cn(C)cn3)cc(Cl)c2F)CC1` [Compound I-353], the IC50 is below 10 µM on KAT-5, below 10 µM against KAT-6A, below 10 µM at KAT-7 and 10 to 50 µM against KAT-8.
As for `Cn1cnc(-c2cc(Cl)c(F)c(C(=O)NNS(=O)(=O)c3ccc(OCc4ccccc4)nc3)c2)c1` [Compound I-354], the IC50 is below 10 µM against KAT-5, 10 to 50 µM at KAT-6A, below 10 µM against KAT-7 and 10 to 50 µM against KAT-8.
In the case of `CCNC(=O)N[C@@H]1CCC[C@@H](CS(=O)(=O)NNC(=O)c2cc(-c3cn(C)cn3)cc(Cl)c2F)C1` [Compound I-355], the IC50 was below 10 µM at KAT-5, below 10 µM on KAT-6A, below 10 µM against KAT-7 and 10 to 50 µM on KAT-8.
For the compound `CCO[C@@H]1CCC[C@H](CS(=O)(=O)NNC(=O)c2cc(-c3cn(C)cn3)cc(Cl)c2F)C1` [Compound I-356], the IC50 on KAT-5 was below 10 µM; at KAT-6A, 10 to 50 µM; against KAT-7 it was below 10 µM; on KAT-8, 10 to 50 µM.
As to `CCO[C@H]1CCC[C@H](CS(=O)(=O)NNC(=O)c2cc(-c3cn(C)cn3)cc(Cl)c2F)C1` [Compound I-357], the IC50 is below 10 µM against KAT-5, below 10 µM at KAT-6A, below 10 µM against KAT-7 and 10 to 50 µM against KAT-8.
With `Cn1cnc(-c2cc(Cl)c(F)c(C(=O)NNS(=O)(=O)CC3(F)CCCCC3)c2)c1` [Compound I-358], the IC50 at KAT-5 is below 10 µM; at KAT-6A, below 10 µM; on KAT-7, below 10 µM; against KAT-8 it was 10 to 50 µM.
`COc1ccc(CN(C)C(=O)NC2CCC(CS(=O)(=O)NNC(=O)c3cc(-c4cn(C)cn4)cc(Cl)c3F)C2)cc1` (stereo not drawn) [Compound I-359]: the IC50 against KAT-5 was below 10 µM; against KAT-6A, below 10 µM; against KAT-7 it was below 10 µM; against KAT-8 it was 10 to 50 µM.
Consider `CNC(=O)NC1CCC(CS(=O)(=O)NNC(=O)c2cc(-c3cn(C)cn3)cc(Cl)c2F)C1` (stereo not drawn) [Compound I-360], for which the IC50 against KAT-5 was below 10 µM; on KAT-6A, below 10 µM; at KAT-7 it was below 10 µM; on KAT-8 it was 10 to 50 µM.
For the compound `Cn1cnc(-c2cc(Cl)c(F)c(C(=O)NNS(=O)(=O)c3cnn(CCOCc4ccccc4)c3)c2)c1` [Compound I-361], the IC50 against KAT-5 is 10 to 50 µM; against KAT-6A, 10 to 50 µM; against KAT-7, below 10 µM; against KAT-8, 10 to 50 µM.
For `Cn1cnc(-c2cc(Cl)c(F)c(C(=O)NNS(=O)(=O)c3cnn(CCO)c3)c2)c1` [Compound I-362], the IC50 against KAT-5 is 10 to 50 µM; at KAT-6A, 10 to 50 µM; against KAT-7, below 10 µM; against KAT-8, 10 to 50 µM.
Take `CCNC(=O)N(C)[C@H]1CC[C@@H](CS(=O)(=O)NNC(=O)c2cc(-c3cn(C)cn3)cc(Cl)c2F)CC1` [Compound I-363]: the IC50 on KAT-5 was below 10 µM; at KAT-6A, 10 to 50 µM; against KAT-7, below 10 µM; on KAT-8, 10 to 50 µM.
On to `CN[C@H]1CC[C@@H](CS(=O)(=O)NNC(=O)c2cc(-c3cn(C)cn3)cc(Cl)c2F)CC1` [Compound I-364], for which the IC50 against KAT-5 is 10 to 50 µM; on KAT-6A, 10 to 50 µM; against KAT-7, below 10 µM; against KAT-8 it was 10 to 50 µM.
